Laboratory results published in patent US20100204258A1, “METHODS AND COMPOSITIONS FOR MODULATING INSULIN SECRETION AND GLUCOSE METABOLISM” (The Trustees of Columbia University in the City of New York, priority 2007, published 2010).
Entries after “also recorded” stand apart in the source; their conditions may differ.

What was measured:
Lewis rats [1] = assay: IPGTT with TBZ, emetine and Compound 6 (FIG. 12); format: in vivo, rat; details: single dose 2-3 mg/kg body weight; for area under the curve from IPGTT: separate experiments
Description: Experimental animals. All animal studies were conducted as described in Example 1. […] Rats received injections of vehicle alone (10% DMSO in saline) or reserpine (in saline). Animals recovered fully before receiving IPGTT. Blood glucose, insulin, glucagon and intraperitoneal glucose tolerance tests measurements. […] The fasting blood glucose (BG) levels of the rats were measured using an Accu-Check blood glucose monitoring system (Roche Diagnostics, Sommerville, N.J.). Intraperitoneal glucose tolerance tests (IPGTT) were performed in 6 hour fasting un-anaesthetized animals. Briefly, after baseline BG measurements, animals received an intraperitoneal (i.p.) injection of 1 gram glucose/kilogram body weight. To minimize stress during the procedure, rats were handled by the same operator during acclimatization and later during weighing and IPGTT. Blood samples (approximately 30 μl) were collected at baseline and then again 15, 30, 45, 60, 90, and 120 minutes following i.p. glucose. BG concentrations were measured immediately on these samples and the remainder processed.

human islets = assay: Glucose-stimulated insulin secretion of purified human cadaveric islets ex vivo; format: cell-based; details: stimulation by high concentrations of glucose
Description: Human islet tissue and glucose-stimulated insulin secretion. The islet tissue used in these studies was obtained with institutional review board approval. Pancreas digestion and islet isolation were performed using minor modifications of the Edmonton purification protocol. (Shapiro, […] al. “Islet […] in seven patients with type I diabetes mellitus using a glucocortoid-free immunosuppressive regimen.” New England Journal of Medicine 343(4):230-8, (2000)) The determination of islet cell mass, viability, and purity were also performed. Purified islets were cultured in CMRL 1066 culture media with 10% fetal bovine serum at 37° C. in humidified air (5% CO2) for 18 to 24 hours. The human islet insulin secretory response was performed according to a procedure described by the Edmonton group. (Id.) Briefly, after an overnight culture, islets were incubated with either low or high concentrations of glucose for 2 hours at 37° C. and 5% CO2. The supernatant was collected for insulin measurement. Insulin concentrations in these experiments were analyzed with a human insulin enzyme-linked immunosorbent assay (ELISA) kit (ALPCO Insulin ELISA kit, Windham, N.H.). In some experiments TBZ, DTBZ or epinephrine was added to the cultures before glucose stimulation.

Lewis rats [2] = assay: IPGTT after 2 mg/kg i.v. of VMAT2 ligands (FIG. 10); format: in vivo, rat; details: 2 mg/kg body weight i.v.; for blood glucose levels during IPGTT: around sixty minutes following glucose challenge; for area under the curve in the IPGTT: following glucose challenge; for blood glucose excursion during IPGTT: vs vehicle (DMSO)
Description: Experimental animals. All animal studies were conducted as described in Example 1.
Anaesthetized rats were administered TBZ, THB, butamol, reserpine, emetine, or Compound 6 at a dose of approximately 2-3 mg/kg body weight by intravenous (i.v.) injection using the penile vein. TBZ, THB, butamol, reserpine, emetine, and Compound 6 were each separately dissolved in neat sterile dimethylsulfoxide (DMSO) and diluted (always more than 10 fold) in sterile saline. Rats received injections of vehicle alone (10% DMSO in saline) or reserpine (in saline). Animals recovered fully before receiving IPGTT.
(§1) Blood glucose, insulin, glucagon and intraperitoneal glucose tolerance tests measurements. Blood samples were collected from a superficial blood vessel in the tails of the rats following 6 hours of fasting between 12:00 noon and 2:00 p.m. The fasting blood glucose (BG) levels of the rats were measured using an Accu-Check blood glucose monitoring system (Roche Diagnostics, Sommerville, N.J.). Intraperitoneal glucose tolerance tests (IPGTT) were performed in 6 hour fasting un-anaesthetized animals. Briefly, after baseline BG measurements, animals received an intraperitoneal (i.p.) injection of 1 gram glucose/kilogram body weight. To minimize stress during the procedure, rats were handled by the same operator during acclimatization and later during weighing and IPGTT. Blood samples (approximately 30 μl) were collected at baseline and then again 15, 30, 45, 60, 90, and 120 minutes following i.p. glucose. BG concentrations were measured immediately on these samples and the remainder processed.

Lewis rats [3] = assay: Intraperitoneal glucose tolerance test (IPGTT) in normal Lewis rats after a single i.v. dose; format: in vivo, rat; details: 25 μg/gbm, single concentration; data not shown
Description: Experimental animals. All animal studies were reviewed and approved by the Institutional Animal Care and Use Committee (IACUC) at Columbia University's Medical School. All experiments were performed in accordance with the IACUC approved procedures. Normal male Lewis rats (100-400 grams) were obtained from Taconic (Taconic Inc., Germantown, N.Y.) and were housed under conditions of controlled humidity (55±5%), temperature (23±1° C.), and lighting (light on: 06.00-18.00 hours) with free access to standard laboratory rat chow and water. Rats were handled daily to minimize nonspecific stress for more than 7 days before the experiments began. In most experiments, it was necessary to measure blood glucose in fasting animals. For these groups, food was removed at the beginning of the light cycle, 6 hours before glucose levels were measured. Diabetes mellitus was induced by intraperitoneal injection of streptozotocin (Sigma Chemical Co., St. Louis, Mo.) (25 to 50 mg/kg) to animals (100 to 150 grams) that had been fasted 4 hours to enhance the effectiveness of STZ treatment.
The STZ solution was prepared fresh by dissolving it in 0.1 M citrate buffer (pH 5.5) and terminally sterile filtered. Control Lewis age and weight matched rats received a 0.5 ml/kg citrate vehicle alone via intraperitoneal injection. Sixty minutes prior to intraperitoneal glucose tolerance testing (IPGTT), anesthesia of male Lewis rats was induced with isoflurane (3-4% in oxygen) and maintained with 1-2% isoflurane in oxygen. Anaesthetized rats were administered TBZ at the indicated dose by intravenous (i.v.) injection using the penile vein. TBZ was dissolved in neat sterile dimethylsulfoxide (DMSO) and diluted (always more than 10 fold) in sterile saline. Rats received injections of vehicle alone (10% DMSO in saline) or reserpine (in saline). Animals recovered fully before receiving IPGTT.
as §1, with “30,” for “30, 45,”, “glucose administration.” for “glucose.”
Plasma was immediately separated by centrifugation at 3000×g for 15 minutes and then stored at −20° C. until analysis. Insulin and glucagon concentration measurements in rat plasma were performed by ELISA as per the manufacturer's instructions using kits from Linco Research Inc. (St. Charles, Mo.) and Alpco Diagnostics (Salem, N.H.), respectively. To validate the test, saline injections were performed by the same method. […] The area under the IPGTT glucose concentration×time curve (AUCIPGTT) was calculated by the trapezoidal rule. The area under the insulin or glucagon concentration×time curve (AUC INS or AUC GCG) was calculated in a similar manner.

Row | Compound | blood glucose levels during IPGTT (Lewis rats [2]) | area under the curve in the IPGTT (Lewis rats [2]) | blood glucose excursion during IPGTT (Lewis rats [2]) | other results
1 | COc1cc2c(cc1OC)C1CC(N)C(CC(C)C)CN1CC2 (stereo not drawn) [Compound 6, 3-isobutyl-9,10-dimethoxy-2,3,4,6,7,11b-hexahydro-1H-pyrido[2,1-a]isoquinolin-2-amine] | – | – | – | blood glucose excursion during IPGTT (Lewis rats [1]): consistently reduced the blood glucose excursion; area under the curve from IPGTT (Lewis rats [1]): depress the area under the curve; also recorded: consistently suppressed the area under the curve
2 | COc1cc2c(cc1OC)[C@H]1C[C@@H](O)[C@H](CC(C)C)CN1CC2 [DTBZ, dihydrotetrabenazine] | – | – | – | insulin secreted by human islets in culture (human islets): enhances glucose-stimulated insulin secretion; also recorded: significantly enhanced
3 | COc1ccc2c(c1OC)CN1CCc3cc4c(cc3C1C2)OCO4 (stereo not drawn) [THB, tetrahydroberberine] | returned to control or near normal levels | smaller area under the curve | reduced the blood glucose excursion | –
4 | CC(C)(C)NCC(O)c1ccc(O)c(CO)c1 (stereo not drawn) [butamol] | returned to control or near normal levels | smaller area under the curve | does not reduce the blood glucose excursion; also recorded: did not reduce the blood glucose excursion | –
5 | CC[C@H]1CN2CCc3cc(OC)c(OC)cc3[C@@H]2C[C@@H]1C[C@H]1NCCc2cc(OC)c(OC)cc21 [emetine] | returned to control or near normal levels | smaller area under the curve | reduced the blood glucose excursion | blood glucose excursion during IPGTT (Lewis rats [1]): consistently reduced the blood glucose excursion; area under the curve from IPGTT (Lewis rats [1]): consistently suppressed the area under the curve; area under the curve from IPGTT (Lewis rats [1]; listed as emitine): depress the area under the curve
6 | CNC[C@H](O)c1ccc(O)c(O)c1 [epinephrine, L-epinephrine bitartrate] | – | – | – | insulin secreted by human islets in culture (human islets): inhibited secretion of insulin
7 | COC(=O)[C@H]1[C@H]2C[C@@H]3c4[nH]c5cc(OC)ccc5c4CCN3C[C@H]2C[C@@H](OC(=O)c2cc(OC)c(OC)c(OC)c2)[C@@H]1OC [reserpine] | returned to control or near normal levels | smaller area under the curve | reduced the blood glucose excursion | AUC IPGTT relative to untreated controls (Lewis rats [3]): larger AUC IPGTT; blood glucose in IPGTT (Lewis rats [3]): persistent hyperglycemia
